These compounds were tested against T1, Human Kv1.5 channels (Homo sapiens, UniProt P22460) (assay: Kv1.5 currents in Xenopus oocytes, two-microelectrode voltage clamp). Settings: human Kv1.5 expressed in Xenopus laevis oocytes; voltage jumps 500 ms to 0 mV and 40 mV; room temperature; Hill equation.
T1 construct: expressed in transfected cells; host or cells: Xenopus laevis oocytes injected with in vitro synthesized Kv1.5-encoding RNA
T1 sequence (P22460 whole entry): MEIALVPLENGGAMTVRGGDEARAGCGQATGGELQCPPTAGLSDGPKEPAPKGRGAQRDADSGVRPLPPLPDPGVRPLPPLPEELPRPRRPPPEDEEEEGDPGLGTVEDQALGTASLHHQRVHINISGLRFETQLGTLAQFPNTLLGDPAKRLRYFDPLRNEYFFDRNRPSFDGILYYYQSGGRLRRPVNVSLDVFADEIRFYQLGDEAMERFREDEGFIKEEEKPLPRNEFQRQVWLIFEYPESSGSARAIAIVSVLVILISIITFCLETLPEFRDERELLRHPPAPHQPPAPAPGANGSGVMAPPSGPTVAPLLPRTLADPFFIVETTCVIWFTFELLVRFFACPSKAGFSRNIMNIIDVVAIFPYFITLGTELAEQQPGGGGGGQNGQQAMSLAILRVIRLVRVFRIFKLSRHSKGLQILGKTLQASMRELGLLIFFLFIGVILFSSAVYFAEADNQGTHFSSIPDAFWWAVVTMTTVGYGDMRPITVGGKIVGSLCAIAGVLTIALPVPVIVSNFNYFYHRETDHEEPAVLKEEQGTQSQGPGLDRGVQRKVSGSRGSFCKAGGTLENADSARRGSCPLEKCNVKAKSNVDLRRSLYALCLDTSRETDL
Type: cell-based
Description: Human Kv1.5 channels were expressed in Xenopus oocytes. For this purpose, firstly ooytes were isolated from Xenopus laevis and were defolliculated. Kv1.5-encoding RNA which had been synthesized in vitro was then injected into these oocytes. After 1-7 days of Kv1.5 protein expression, the Kv1.5 currents were measured on the oocytes by the two-microelectrode voltage clamp technique. The Kv1.5 channels were for this purpose usually activated with voltage jumps lasting 500 ms to 0 mV and 40 mV. A solution of the following composition flowed through the bath: NaCl 96 mM, KCl 2 mM, CaCl2 1.8 mM, MgCl2 1 mM, HEPES 5 mM (titrated to pH 7.4 with NaOH). These experiments were carried out at room temperature. The following were employed for data acquisition and analysis: geneclamp amplifier (Axon Instruments, Foster City, USA) and MacLab D/A converter and software (ADInstruments, Castle Hill, Australia). The compounds of the invention were tested by adding them in various concentrations to the bath solution. The effects of the compounds were calculated as percentage inhibition of the Kv1.5 control current which was obtained when no compound was added to the solution. The data were then extrapolated using the Hill equation in order to determine the inhibitory concentrations IC50 for the respective compounds.
In the case of `COc1ccc(NS(=O)(=O)c2ccc(C)cc2)c(C(=O)NC(C)(C)c2ccccc2)c1` [Example 103], the IC50 is reported as 1.4 µM. `COc1ccc(S(=O)(=O)Nc2cccc(C)c2C(=O)N(Cc2ccccc2)Cc2cccnc2)cc1` [Example 47] was tested, and the IC50 was 4.7 µM. Compound `CC[C@H](NC(=O)c1ccccc1NS(=O)(=O)c1ccc(C(F)(F)F)cc1)c1ccccc1` [Example 66] has an IC50 of 4 µM. Work on `CCCCS(=O)(=O)Nc1ccc(C)cc1C(=O)NC(c1ccc(OC)nc1)C1CC1` (centres unmarked) [Example 129] yielded an IC50 of 1.3 µM. `CC[C@H](NC(=O)c1ccccc1NS(=O)(=O)CCC(C)C)c1ccccc1` [Example 74] gave an IC50 of 1.7 µM.

— US7332608B2, “Anthranilamides and methods of their use” (SANOFI-AVENTIS Deutschland GmbH, priority 2001, dated 2008)
